Results published in a melting point compilation (Tetko et al.).

For `O=S1(=O)CCC(Nc2ccccc2)C1` (configuration not stated), the melting point was 119 to 123 °C. Work on `CC(C)C(NC(=O)OC(C)(C)C)C(N)=NO` (configuration not stated) yielded a melting point of 182 to 184 °C. `NS(=O)(=O)N1CCCNCC1` showed a melting point of 118 to 120 °C. In the case of `CC(C)(C)OC(=O)Nc1cocn1`, the melting point is reported as 108 to 110 °C. `COc1cc(C=O)ccc1OCC(=O)N1CCOCC1` gave a melting point of 98 to 100 °C. For `Cc1nccn1-c1ccc(N)cc1F`, the melting point was 84 to 86 °C. `O=C(O)CCCCCc1ccc(I)cc1` showed a melting point of 65 to 67 °C. Compound `CCOc1ccc(C(=O)O)cc1C` has a melting point of 198 to 200 °C. In the case of `O=C(O)c1ccccc1N1CCCC1=O`, the melting point is reported as 197 to 199 °C. With `CC(C)(C)c1ccc(OCC(=O)O)c(C(C)(C)C)c1` the melting point was under 17 °C. In the case of `O=C(O)c1ccccc1OCc1ccc(Cl)cc1Cl`, the melting point is reported as 162 to 164 °C. `Cc1ccc2[nH]cc(CCC(=O)O)c2c1` showed a melting point of 126 to 128 °C. In the case of `O=C(O)c1cc(Br)cnc1S`, the melting point is reported as 239 to 241 °C. With `C=CC(=O)NC(=O)NC` the melting point was 174 to 176 °C. `CCCN1C(=O)NC(=O)C1=O` showed a melting point of 105 to 107 °C. With `O=S(=O)(Cl)c1csc(-c2ccc(F)cc2)n1` the melting point was 75 to 77 °C. Work on `CC(=O)N1Cc2ccccc2CC1C(=O)O` (configuration not stated) yielded a melting point of 173 to 175 °C. In the case of `Sc1ncn(-c2ccccc2)n1`, the melting point is reported as 173 to 175 °C. Compound `Cc1[nH]c2ccc(Cl)cc2c1C=O` has a melting point of 248 to 250 °C. `Cc1nc(-c2ccccn2)sc1C(=O)O` gave a melting point of 235 to 237 °C. Work on `Nn1c(S)nnc1Cc1ccccc1` yielded a melting point of 179 to 181 °C. In the case of `O=C(O)c1cc(-c2ccccc2)ns1`, the melting point is reported as 183 to 185 °C. With `Cn1ccc(C(=O)NCCC(=O)O)cc1=O` the melting point was 214 to 216 °C. In the case of `O=C1CN(C(c2ccccc2)c2ccccc2)C1`, the melting point is reported as 78 to 80 °C. In the case of `Cc1nn(-c2ccccc2)c(CCl)c1C#N`, the melting point is reported as 130 to 132 °C. For `Cc1nn(CC(F)(F)F)cc1C(=O)O`, the melting point was 119 to 121 °C. `CC(N)c1ccccc1-c1ccccc1` (configuration not stated) showed a melting point of 76 to 78 °C. For `Cc1ccc(-c2nc(N)sc2C)cc1`, the melting point was 173 to 175 °C. `O=C(O)Cc1ccc2c(c1)OCCO2` gave a melting point of 54 to 56 °C. In the case of `CC1(c2ccccc2)NC(=O)N(NC(=O)CCl)C1=O` (configuration not stated), the melting point is reported as 150 to 152 °C. `Nc1ccccc1C(=O)NCCc1ccccc1` showed a melting point of 110 to 112 °C. `Cc1cccc2[nH]cc(CCC(=O)O)c12` showed a melting point of 145 to 147 °C. For `O=C(O)c1cccc(Sc2cccc(Br)c2)n1`, the melting point was 113 to 115 °C. `Cn1cc(C2NC(=O)CCC2N)cn1` (configuration not stated) gave a melting point of 164 to 166 °C. Compound `O=C(O)C=Cc1cc(Br)cs1` has a melting point of 169 to 171 °C. For `CC(C)(C)OC(=O)NC(C(=O)O)c1cccc(Cl)c1` (configuration not stated), the melting point was 128 to 130 °C. Compound `CC(C)(C)c1ccc(Cl)nn1` has a melting point of 83 to 85 °C. Compound `CC(O)CN1C(=O)C=CC1=O` (configuration not stated) has a melting point of 74 to 76 °C. With `CCOC(=O)Cc1nnc(S)n1Cc1ccco1` the melting point was under 17 °C. With `CNC(=O)COc1cccc(O)c1` the melting point was 123 to 125 °C. In the case of `O=C(CCl)c1ccc2c(c1)CCCN2C(=O)c1ccccc1`, the melting point is reported as 178 to 180 °C. In the case of `CSc1cc2c(cc1C=O)OCCO2`, the melting point is reported as 112 to 114 °C. Compound `CS(=O)(=O)c1nc2cc(Br)cnc2[nH]1` has a melting point of 222 to 224 °C. In the case of `N#Cc1ccc(-c2nnc(CCl)o2)cc1`, the melting point is reported as 143 to 145 °C. For `Cc1cc(-c2nc3cc(F)ccc3n2C)ccc1N`, the melting point was 174 to 176 °C. `O=c1ccn2ncc(Br)c2[nH]1` showed a melting point of 349 to 351 °C. `Cc1ccccc1N1C(=O)c2ccc(C(=O)O)cc2C1=O` gave a melting point of 234 to 236 °C. Compound `CC(C)c1nc2ccccc2n1CC#N` has a melting point of 116 to 118 °C. With `Cc1oc(C(N)=O)cc1-c1csc(N)n1` the melting point was 224 to 226 °C. In the case of `CCc1c(O)nc(S)n(-c2cccc(OC)c2)c1=O`, the melting point is reported as 141 to 143 °C. With `Oc1ccc(-c2noc(C3CC3)n2)cc1` the melting point was 149 to 151 °C. With `N#CCc1nc2cc(C(F)(F)F)ccc2s1` the melting point was 95 to 97 °C. For `CC(C)(C)S(=O)(=O)CC(=O)O`, the melting point was 89 to 91 °C. Work on `Cc1cc2cc(Br)ccc2s1` yielded a melting point of 69 to 71 °C. In the case of `Cc1ccc(N)cc1S(=O)(=O)N1CCCCC1`, the melting point is reported as 105 to 107 °C. With `O=C(O)c1cccc(S(=O)(=O)NC2CCCC2)c1` the melting point was 209 to 211 °C. Compound `BrC1=CC2C(C3C=CC2(Br)C32OCCO2)C12OCCO2` (configuration not stated) has a melting point of 178 to 180 °C. Work on `O=C1C=CC(=O)N1CCc1ccc([N+](=O)[O-])cc1` yielded a melting point of 61 to 63 °C. Work on `N#Cc1c[nH]c2ccc(Br)cc2c1=O` yielded a melting point of 359 to 361 °C. `Nc1nc(-c2ccncc2)cs1` gave a melting point of 172 to 174 °C. With `CC(Cl)C(=O)N1CCSc2ccccc21` (configuration not stated) the melting point was 81 to 83 °C. In the case of `N#Cc1cccc(C2(N)CC2)c1`, the melting point is reported as 67 to 69 °C. In the case of `Nc1ccc(N2CCOCC2)c(S(=O)(=O)Nc2ccccc2Cl)c1`, the melting point is reported as 219 to 221 °C. `CC(=O)c1ccc2ccccc2n1` gave a melting point of 47 to 49 °C. With `Nc1c(C(=O)O)cnc2ccccc12` the melting point was 303 to 305 °C. With `Fc1cccc(-n2ccnc2)n1` the melting point was 87 to 89 °C. `CN(Cc1ccccc1)C(=O)c1ccccc1C(=O)O` showed a melting point of 153 to 155 °C. Work on `O=C(O)c1cc(F)ccc1-n1ccnc1` yielded a melting point of 229 to 231 °C. Compound `Cc1nnc(S)n1-c1cccc(N)c1` has a melting point of 219 to 221 °C. `O=C(O)c1csc(-c2ccoc2)n1` gave a melting point of 166 to 168 °C. Compound `Cc1cc(CCCC(=O)O)c(C)s1` has a melting point of 56 to 58 °C. Work on `N#CC=Cc1cccnc1` yielded a melting point of 104 to 106 °C.
